Test results taken from patent US20260207704A1, “STAPLED PEPTIDES AND METHODS THEREOF” (priority 2022, published 2026).
*1 amine or outer side, *2 acyl side, *3 side chain or, on linkers, in order; H or OH if unused. Bridges are numbered along the chain shown (N, C = ends). [ ]: non-standard residue; d: D form. PyrS2 = (S)-3-amino-1-((pent-4-en-1-yloxy)carbonyl)pyrrolidine-3-carboxylic acid, olefin staple residue, C=CCCCOC(=O)N1CC[C@@](N[*:1])(C(=O)[*:2])C1; Phe(3-COOH) = N[C@@H](Cc1cccc(C(=O)O)c1)C(=O)O; 2F3MeF = Cc1cccc(C[C@H](N[*:1])C(=O)[*:2])c1F; Bta = N[C@@H](Cc1csc2ccccc12)C(=O)O; αAllylPro = C=CC[C@@]1(C(=O)O)CCCN1; tBuAla = CC(C)(C)C[C@H](N)C(=O)O; B5 = not defined here

Assays:
beta-catenin/TCF = format: cell-based; conditions: COLO320DM cells
[1] = mouse plasma pharmacokinetics; format: in vivo; conditions: single intraperitoneal (IP) dose at 100 mg/kg
Protocol: (B): Mouse plasma pharmacokinetics. […] Mouse single dose IP, 50 mg/kg.
Concentrations of agents in biological samples were measured by LC-MS/MS (Triple Quad 6500+). […] 8 uL of plasma or tissue lysate was used for LC method with mobile phase A (1% formic acid (FA, LS118-4, Fisher Scientific) in H2O) and mobile phase B (0.1% FA in ACN), 0.6 ml/min flow rate in Waters ACQUITY UPLC BEH C18 2.1*50 mm, 1.7 μm column. […] MS was conducted by electrospray ionization and multi reaction monitor scans. PK parameters such as plasma maximum concentration (Cmax), and AUC were analyzed by noncompartmental model 200 of Phoenix WinNonlin 8.3, using the linear/log trapezoidal method.

beta-catenin/TCF4 = target: T1, beta-catenin/TCF4 (Homo sapiens, UniProt P35222); assay: Nano-BRET target engagement assay (HEK293 cells); format: cell-based; conditions: read-out: NanoBRET Abs IC50
T1 construct: expressed in transfected cells; host or cells: HEK293 cells
T1 sequence (P35222 1-781): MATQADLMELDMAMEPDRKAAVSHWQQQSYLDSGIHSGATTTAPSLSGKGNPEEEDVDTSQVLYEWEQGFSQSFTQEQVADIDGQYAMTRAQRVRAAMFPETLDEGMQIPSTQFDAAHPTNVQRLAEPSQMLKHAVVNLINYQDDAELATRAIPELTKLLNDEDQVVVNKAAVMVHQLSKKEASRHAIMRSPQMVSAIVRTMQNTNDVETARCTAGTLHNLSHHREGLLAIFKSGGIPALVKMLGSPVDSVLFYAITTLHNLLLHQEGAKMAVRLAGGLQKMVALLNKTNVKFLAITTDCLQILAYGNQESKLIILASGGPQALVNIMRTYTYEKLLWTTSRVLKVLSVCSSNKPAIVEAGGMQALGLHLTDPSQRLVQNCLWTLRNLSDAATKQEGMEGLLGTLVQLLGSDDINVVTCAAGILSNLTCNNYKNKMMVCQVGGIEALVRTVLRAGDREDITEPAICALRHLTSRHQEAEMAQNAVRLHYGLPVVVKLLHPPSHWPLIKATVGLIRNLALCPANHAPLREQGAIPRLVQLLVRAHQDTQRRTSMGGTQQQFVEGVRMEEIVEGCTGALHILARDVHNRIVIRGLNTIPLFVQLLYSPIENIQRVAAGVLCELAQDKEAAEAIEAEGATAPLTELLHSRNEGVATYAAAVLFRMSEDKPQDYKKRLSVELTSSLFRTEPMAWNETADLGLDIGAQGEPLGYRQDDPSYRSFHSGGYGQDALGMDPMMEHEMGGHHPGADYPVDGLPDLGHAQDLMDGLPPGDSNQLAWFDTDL
Protocol: (§1) In some embodiments, solubility, shake flask LogD, and binding to beta-catenin were assessed.
In some embodiments, capabilities of provided technologies, e.g., binding to beta-catenin and/or disrupt its interactions (or lack thereof) with various partners were assessed and confirmed in cells, e.g., using a NanoBRET based assay in HEK293 cells.

beta-catenin [2] = target: T2, beta-catenin (Homo sapiens, UniProt P35222); assay: fluorescence polarization binding to beta-catenin; conditions: read-out: beta-Catenin FP IC50
T2 sequence (P35222 1-781): T1 sequence (P35222 1-781)
Protocol: In some embodiments, an EC50 is measured by fluorescence polarization as described in the Examples.
as §1

beta-catenin [3] = target: T3, beta-catenin (human, UniProt B6V8E6 146-665 (dog entry), limits assumed); assay: cell-based or functional assay
T3 sequence: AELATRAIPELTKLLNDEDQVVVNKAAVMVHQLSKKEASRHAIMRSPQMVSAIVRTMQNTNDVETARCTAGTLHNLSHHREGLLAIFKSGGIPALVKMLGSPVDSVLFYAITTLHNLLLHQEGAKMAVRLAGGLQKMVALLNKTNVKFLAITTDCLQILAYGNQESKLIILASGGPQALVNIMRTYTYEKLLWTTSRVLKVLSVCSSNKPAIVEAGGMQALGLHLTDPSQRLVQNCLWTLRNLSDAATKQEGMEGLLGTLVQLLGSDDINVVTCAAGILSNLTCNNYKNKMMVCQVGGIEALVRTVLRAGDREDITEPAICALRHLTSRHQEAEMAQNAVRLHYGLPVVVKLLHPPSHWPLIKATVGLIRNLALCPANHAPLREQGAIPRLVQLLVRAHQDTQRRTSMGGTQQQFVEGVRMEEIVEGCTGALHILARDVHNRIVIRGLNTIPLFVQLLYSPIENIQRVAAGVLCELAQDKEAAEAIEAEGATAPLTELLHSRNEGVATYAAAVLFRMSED

## CC(=O)N1CCC[C@]12CC=CCCCC1(CCCC=CCCCOC(=O)N3CC[C@@]4(C3)NC(=O)[C@H](CCCCNC(=O)CC[C@@H](C(=O)N[C@@H](C)C(N)=O)NC(=O)[C@H](Cc3csc5ccccc35)NC(=O)[C@H](Cc3ccsc3)NC4=O)NC(=O)[C@H](Cc3ccccc3)NC(=O)[C@H](C)NC(=O)C(C)(C)NC(=O)[C@H](Cc3cccc(C(=O)O)c3)NC(=O)[C@H](CCC(=O)O)NC1=O)NC(=O)[C@H](CC(C)(C)C)NC(=O)[C@H](CCC(=O)O)NC2=O (relative stereo) [I-470, Ac-PL3-Glu-Npg-B5-Glu-3COOHF-Aib-Ala-Phe-Lys*3-PyrS2-3Thi-BztA-GlnR*3-Ala-NH2]
beta-catenin/TCF
  effect on expression level of AXIN2: no or very little or non-significant effect
[1]
  plasma AUC: comparable plasma AUC

## Ac-PL3-Asp-Npg-B5-Asp-4F3Me2COOHF-Aib-Ala-Phe-Lys*3-PyrS2-2F3MeF-BztA-GlnR*3-Ala-NH2 [I-205]
beta-catenin/TCF4
  IC50: 3 to 10 µM
beta-catenin [2]
  IC50: < 0.05 µM

## Ac-[αAllylPro]D[tBuAla][B5]D[Phe(3-COOH)]AAFL[PyrS2][2F3MeF][Bta]Q-NH2 (staple 1-4, 4-11; not fully specified; reading uncertain) [Peptide A]
beta-catenin [3]
  AXIN2 expression IC50, COLO320DM cells: 1.4 µM
  AXIN2 expression IC50, DLD1 cells: 9.3 µM
  SP5 expression IC50, DLD1 cells: 9 µM
